Assay results: PubChem BioAssay AID192 (DTP/NCI, 2004)
“And” between values parts separate entries of the source, which are not always exact repeats. Equal values may be shown once. Inconclusive results and toxic doses are left out. Rule for the calls: active = survival T/C of 150% or more; inactive = T/C below 125% in these data.

Test system: BDF1 mice, B16 melanoma ip, median survival T/C
Experiment: NCI In Vivo Anticancer Drug Screen. Data for tumor model B16 Melanoma (intraperitoneal) in B6D2F1 (BDF1) mice
Details: endpoint: median survival time, higher = longer survival
Experimental: The antitumor activity of compounds was measured in mice bearing transplantable tumors. Survival or tumor size were measured and the results are expressed as the measurement made in the treated group (T) divided by the measurement made in the vehicle treated control group (C). The tumor model used in this assay is B16 Melanoma (intraperitoneal) in B6D2F1 (BDF1) mice

[1] = dose: 50.0 mg/kg/injection, schedule: Q01DX009 (ip), vehicle: Klucel (hydroxypropylcellulose) (HPC)
[2] = dose: 100.0 mg/kg/injection, schedule: Q01DX009 (ip), vehicle: Klucel (hydroxypropylcellulose) (HPC)
[3] = dose: 200.0 mg/kg/injection, schedule: Q04DX003 (ip), vehicle: Klucel (hydroxypropylcellulose) (HPC)
[4] = dose: 3.0 mg/kg/injection, schedule: Q01DX009 (ip), vehicle: Klucel (hydroxypropylcellulose) (HPC)
[5] = dose: 6.25 mg/kg/injection, schedule: Q01DX009 (ip), vehicle: saline
[6] = dose: 25.0 mg/kg/injection, schedule: Q01DX009 (ip), vehicle: saline with Tween-80
[7] = dose: 50.0 mg/kg/injection, schedule: Q01DX009 (ip), vehicle: saline with Tween-80
[8] = dose: 100.0 mg/kg/injection, schedule: Q01DX009 (ip), vehicle: saline with Tween-80
[9] = dose: 200.0 mg/kg/injection, schedule: Q01DX009 (ip), vehicle: Klucel (hydroxypropylcellulose) (HPC)
[10] = dose: 400.0 mg/kg/injection, schedule: Q01DX009 (ip), vehicle: Klucel (hydroxypropylcellulose) (HPC)
[11] = dose: 200.0 mg/kg/injection, schedule: Q01DX009 (ip), vehicle: saline with Tween-80
[12] = dose: 400.0 mg/kg/injection, schedule: Q01DX009 (ip), vehicle: saline with Tween-80
[13] = dose: 100.0 mg/kg/injection, schedule: Q01DX009 (ip), vehicle: saline
[14] = dose: 100.0 mg/kg/injection, schedule: Q04DX003 (ip), vehicle: saline
[15] = dose: 200.0 mg/kg/injection, schedule: Q04DX003 (ip), vehicle: saline
[16] = dose: 25.0 mg/kg/injection, schedule: Q01DX009 (ip), vehicle: saline

Measured: T/C

NN(CC1=COc2ccccc2O1)Cc1ccccc1
inactive: dose: 12.5 mg/kg/injection, schedule: Q01DX009 (ip), vehicle: Klucel (hydroxypropylcellulose) (HPC) 94 % of control | dose: 25.0 mg/kg/injection, schedule: Q01DX009 (ip), vehicle: Klucel (hydroxypropylcellulose) (HPC) 94 % of control | [1] 91 % of control | [2] 105 % of control | [3] 91 % of control

O=C(O)CCCc1ccc(N(CCCl)CCCl)cc1
inactive: dose: 0.37 mg/kg/injection, schedule: Q01DX009 (ip), vehicle: Klucel (hydroxypropylcellulose) (HPC) 100 % of control | dose: 0.5 mg/kg/injection, schedule: Q01DX009 (ip), vehicle: Klucel (hydroxypropylcellulose) (HPC) 93 % of control and 104 % of control | dose: 1.0 mg/kg/injection, schedule: Q01DX009 (ip), vehicle: Klucel (hydroxypropylcellulose) (HPC) 101 % of control and 104 % of control and 117 % of control | dose: 1.5 mg/kg/injection, schedule: Q01DX009 (ip), vehicle: Klucel (hydroxypropylcellulose) (HPC) 88 % of control and 89 % of control | dose: 1.88 mg/kg/injection, schedule: Q01DX009 (ip), vehicle: Klucel (hydroxypropylcellulose) (HPC) 112 % of control | dose: 2.0 mg/kg/injection, schedule: Q01DX009 (ip), vehicle: Klucel (hydroxypropylcellulose) (HPC) 100 % of control and 107 % of control and 109 % of control | dose: 2.0 mg/kg/injection, schedule: Q01DX017 (ip), vehicle: saline 109 % of control | [4] 86 % of control and 87 % of control | dose: 3.13 mg/kg/injection, schedule: Q01DX009 (ip), vehicle: saline 100 % of control | dose: 3.75 mg/kg/injection, schedule: Q01DX009 (ip), vehicle: Klucel (hydroxypropylcellulose) (HPC) 110 % of control | dose: 4.0 mg/kg/injection, schedule: Q01DX009 (ip), vehicle: Klucel (hydroxypropylcellulose) (HPC) 108 % of control and 109 % of control and 118 % of control | dose: 4.0 mg/kg/injection, schedule: Q01DX009 (ip), vehicle: saline 104 % of control | dose: 4.0 mg/kg/injection, schedule: Q01DX017 (ip), vehicle: saline 121 % of control | dose: 6.0 mg/kg/injection, schedule: Q01DX009 (ip), vehicle: Klucel (hydroxypropylcellulose) (HPC) 89 % of control and 118 % of control | [5] 104 % of control | dose: 7.5 mg/kg/injection, schedule: Q01DX009 (ip), vehicle: Klucel (hydroxypropylcellulose) (HPC) 116 % of control | dose: 8.0 mg/kg/injection, schedule: Q01DX001 (ip), vehicle: saline 95 % of control | dose: 8.0 mg/kg/injection, schedule: Q01DX009 (ip), vehicle: Klucel (hydroxypropylcellulose) (HPC) 111 % of control and 120 % of control | dose: 8.0 mg/kg/injection, schedule: Q01DX009 (ip), vehicle: saline 119 % of control | dose: 8.0 mg/kg/injection, schedule: Q04DX003 (ip), vehicle: saline 122 % of control | dose: 12.0 mg/kg/injection, schedule: Q01DX009 (ip), vehicle: Klucel (hydroxypropylcellulose) (HPC) 100 % of control | dose: 16.0 mg/kg/injection, schedule: Q01DX001 (ip), vehicle: saline 118 % of control | dose: 16.0 mg/kg/injection, schedule: Q01DX009 (ip), vehicle: saline 121 % of control | dose: 16.0 mg/kg/injection, schedule: Q04DX003 (ip), vehicle: saline 122 % of control

CC(C)(C)OC(=O)NC(Cc1ccc(OCc2c(Cl)cccc2Cl)cc1)C(=O)O (stereo unspecified)
inactive: [6] 101 % of control | [7] 104 % of control | [8] 86 % of control

CCc1ccccc1NC(=O)Nc1ccccc1C
inactive: dose: 100.0 mg/kg/injection, schedule: Q04DX003 (ip), vehicle: Klucel (hydroxypropylcellulose) (HPC) 87 % of control | [3] 87 % of control | dose: 400.0 mg/kg/injection, schedule: Q04DX003 (ip), vehicle: Klucel (hydroxypropylcellulose) (HPC) 87 % of control

COc1ccccc1Oc1ccc(N=Cc2ccc(C)cc2)cc1
inactive: [1] 102 % of control | [2] 86 % of control and 102 % of control | [9] 100 % of control and 111 % of control | [10] 86 % of control

c1ccc(-c2nn3c(-c4ccccc4)nnc3o2)cc1
inactive: [8] 93 % of control | [11] 92 % of control | [12] 92 % of control

COC(=O)C1(C)CCC(c2ccc(OC)cc2)CC1=O (stereo unspecified)
inactive: [1] 90 % of control | [9] 87 % of control

Cc1ccc(NC(=O)c2ccccc2Cl)cc1
inactive: [8] 105 % of control | [11] 97 % of control

C1CC[N-]CC1.C1CC[N-]CC1.[Cl][Rh]([Cl])[Cl]
inactive: dose: 12.5 mg/kg/injection, schedule: Q01DX009 (ip), vehicle: saline with Tween-80 100 % of control | [6] 95 % of control | [7] 102 % of control | [8] 94 % of control | [11] 96 % of control

Cc1cccc(NC(=O)c2cccc(C(=O)Nc3cccc(C)c3C)c2)c1C
inactive: [2] 100 % of control | [9] 90 % of control | [10] 86 % of control

COc1c(Cl)c2c(c(OC)c1OC)-c1ccc(OC)c(=O)cc1C(NC(C)=O)CC2 (stereo unspecified)
inactive: dose: 0.38 mg/kg/injection, schedule: Q01DX009 (ip), vehicle: Klucel (hydroxypropylcellulose) (HPC) 118 % of control | dose: 0.75 mg/kg/injection, schedule: Q01DX009 (ip), vehicle: Klucel (hydroxypropylcellulose) (HPC) 123 % of control | [4] 109 % of control

NC(Cc1cnc[nH]1)C(=O)O (stereo unspecified) (tested in a mixture with another compound)
inactive: [13] 106 % of control | [14] 104 % of control | dose: 200.0 mg/kg/injection, schedule: Q01DX009 (ip), vehicle: saline 100 % of control | [15] 90 % of control | dose: 400.0 mg/kg/injection, schedule: Q01DX009 (ip), vehicle: saline 100 % of control | dose: 400.0 mg/kg/injection, schedule: Q04DX003 (ip), vehicle: saline 102 % of control

c1ccc(CNC(Cc2ccccc2)c2ccc(OCc3ccccc3)cc2)cc1 (stereo unspecified)
inactive: [2] 106 % of control | [9] 96 % of control | [10] 93 % of control

Cc1ccccc1C(=O)NCC(=O)O
inactive: [8] 107 % of control | [11] 99 % of control | [12] 95 % of control

CCO/C=C1\SC(=S)N(c2ccco2)C1=O
inactive: [16] 111 % of control | dose: 25.0 mg/kg/injection, schedule: Q04DX003 (ip), vehicle: saline 116 % of control | dose: 50.0 mg/kg/injection, schedule: Q01DX009 (ip), vehicle: saline 98 % of control | dose: 50.0 mg/kg/injection, schedule: Q04DX003 (ip), vehicle: saline 105 % of control | [13] 117 % of control | [14] 116 % of control | [15] 102 % of control

Nc1ncnc2c1ncn2C1OC(CO)CC1O (stereo unspecified)
inactive: dose: 18.75 mg/kg/injection, schedule: Q01DX009 (ip), vehicle: Klucel (hydroxypropylcellulose) (HPC) 113 % of control | dose: 37.5 mg/kg/injection, schedule: Q01DX009 (ip), vehicle: Klucel (hydroxypropylcellulose) (HPC) 112 % of control and 119 % of control | dose: 75.0 mg/kg/injection, schedule: Q01DX009 (ip), vehicle: Klucel (hydroxypropylcellulose) (HPC) 104 % of control and 115 % of control

CCCCCCCCP(=O)(N1CC1C)N1CC1C (stereo unspecified)
inactive: dose: 3.12 mg/kg/injection, schedule: Q01DX009 (ip), vehicle: saline 101 % of control | [5] 102 % of control | dose: 12.5 mg/kg/injection, schedule: Q01DX009 (ip), vehicle: saline 97 % of control | [16] 102 % of control

CC(C)c1c[nH]c(=O)[nH]c1=O
inactive: [2] 100 % of control | [9] 92 % of control | [10] 95 % of control
